# Test results from patent EP0545103A1, “Insecticidal, acaricidal and molluscicidal 1-(substituted) thioalkylpyrroles” (priority 1991, dated 1993).
# Test system: Diabrotic undecimpunctata howardi, 3rd instar southern corn rootworm
# Test: Southern corn rootworm soil test
# Type: in vivo
# Set-up: key: 0: no effect; 10-25% kill; 26-35% kill; 36-45% kill; 46-55% kill; 56-65% kill; 66-75% kill; 76-85% kill; 86-99% kill; 9: 100% kill
# Settings: 1 (ppm as headed), mortality rating after 6 days
# Outline: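 Soil test with ten 3rd instar larvae per jar, mortality read after 6 days and missing larvae counted as dead; scores on a rating scale. Doses were 1.25 and 0.25 mg a.i. per jar, corresponding to roughly 50 and 10 kg/ha, loaded on talc from acetone and mixed into moist soil with millet seed as food.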
row,Compound,SOUTHERN CORN ROOTWORM
1,CN(C)C(=S)SCn1c(-c2ccc(Cl)cc2)c(C#N)c(Cl)c1C(F)(F)F [Example 21],0
2,CN(C)C(=S)SCn1c(-c2ccc(Cl)cc2)c(C#N)c(Br)c1C(F)(F)F [Example 24],0
3,CN=C(NC)SCn1c(-c2ccc(Cl)cc2)c(C#N)c(Cl)c1C(F)(F)F [Example 2],0
4,N#Cc1c(Br)c(C(F)(F)F)n(CSC2=NCCN2)c1-c1ccc(Cl)cc1 [Example 7],0

# Same assay, conditions: 10 (ppm as headed), mortality rating after 6 days
row,Compound,SOUTHERN CORN ROOTWORM
1,CN(C)C(=S)SCn1c(-c2ccc(Cl)cc2)c(C#N)c(Cl)c1C(F)(F)F [Example 21],0
2,CSCn1c(-c2ccc(Cl)cc2)c(C#N)c(Br)c1C(F)(F)F [Example 25],0
3,CN(C)C(=S)SCn1c(-c2ccc(Cl)cc2)c(C#N)c(Br)c1C(F)(F)F [Example 24],0
4,CSCn1c(Br)c(Br)c(C#N)c1-c1ccc(C(F)(F)F)cc1 [Example 44],0
5,CN=C(NC)SCn1c(-c2ccc(Cl)cc2)c(C#N)c(Cl)c1C(F)(F)F [Example 2],0
6,N#Cc1c(Br)c(C(F)(F)F)n(CSC2=NCCN2)c1-c1ccc(Cl)cc1 [Example 7],0

# Same assay, conditions: 50 (ppm as headed), mortality rating after 6 days
row,Compound,SOUTHERN CORN ROOTWORM
1,CC(C)OC(=S)SCn1c(-c2ccc(Cl)cc2)c(C#N)c(Br)c1C(F)(F)F [Example 30],9 (100% kill)
2,CN(C)C(=S)SCn1c(Cl)c(C#N)c(Cl)c1-c1ccc(Cl)c(Cl)c1 [Example 36],0
3,CN(C)C(=S)SCn1c(-c2ccc(Cl)cc2)c(C#N)c(Cl)c1C(F)(F)F [Example 21],9 (100% kill)
4,CN=C(NC)SCn1c(Br)c(Br)c(C#N)c1Br [Example 14],0
5,FC(F)(F)c1c(Br)c(-c2ccc(Cl)c(Cl)c2)n(CSC2=NCCCN2)c1C(F)(F)F [Example 17],7 (76-85% kill)
6,CSCn1c(-c2ccc(Cl)cc2)c(C#N)c(Br)c1C(F)(F)F [Example 25],0
7,CN(C)C(=S)SCn1c(-c2ccc(Cl)cc2)c(C#N)c(Br)c1C(F)(F)F [Example 24],9 (100% kill)
8,CSCn1c(Br)c(Br)c(C#N)c1-c1ccc(C(F)(F)F)cc1 [Example 44],3 (36-45% kill)
9,CN=C(NC)SCn1c(-c2ccc(Cl)cc2)c(C#N)c(Cl)c1C(F)(F)F [Example 2],8 (86-99% kill)
10,N#Cc1c(Br)c(C(F)(F)F)n(CSC2=NCCN2)c1-c1ccc(Cl)cc1 [Example 7],9 (100% kill)

# Test system: Heliothis virescens, 3rd instar tobacco budworm
# Test: Tobacco budworm 3rd instar test, dipped cotton cotyledons
# Type: in vivo
# Set-up: key: 0: no effect; 10-25% kill; 26-35% kill; 36-45% kill; 46-55% kill; 56-65% kill; 66-75% kill; 76-85% kill; 86-99% kill; 9: 100% kill
# Settings: 10 ppm; mortality rating after 3 days
# Outline: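 Rating-scale scores of mortality and reduced feeding, taken 3 days after single third-instar larvae were caged on dried cotton cotyledon quarters. Cotyledons were pre-dipped in test solutions diluted with water from a 10,000 ppm stock in 35% acetone.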
row,Compound,TOBACCO BUDWORM 3rd Instar
1,CN(C)C(=S)SCn1c(Cl)c(C#N)c(Cl)c1-c1ccc(Cl)c(Cl)c1 [Example 36],0
2,CN(C)C(=S)SCn1c(-c2ccc(Cl)cc2)c(C#N)c(Cl)c1C(F)(F)F [Example 21],9 (100% kill)
3,CN(C)C(=S)SCn1c(-c2ccc(Cl)cc2)c(C#N)c(Br)c1C(F)(F)F [Example 24],0
4,CSCn1c(Br)c(Br)c(C#N)c1-c1ccc(C(F)(F)F)cc1 [Example 44],0
5,CN=C(NC)SCn1c(-c2ccc(Cl)cc2)c(C#N)c(Cl)c1C(F)(F)F [Example 2],9 (100% kill)

# Same assay, conditions: 100 ppm; mortality rating after 3 days
row,Compound,TOBACCO BUDWORM 3rd Instar
1,CN(C)C(=S)SCn1c(Cl)c(C#N)c(Cl)c1-c1ccc(Cl)c(Cl)c1 [Example 36],9 (100% kill)
2,CN(C)C(=S)SCn1c(-c2ccc(Cl)cc2)c(C#N)c(Cl)c1C(F)(F)F [Example 21],9 (100% kill)
3,CN=C(NC)SCn1c(Br)c(Br)c(C#N)c1Br [Example 14],0
4,CN(C)C(=S)SCn1c(-c2ccc(Cl)cc2)c(C#N)c(Br)c1C(F)(F)F [Example 24],9 (100% kill)
5,CSCn1c(Br)c(Br)c(C#N)c1-c1ccc(C(F)(F)F)cc1 [Example 44],0
6,CN=C(NC)SCn1c(-c2ccc(Cl)cc2)c(C#N)c(Cl)c1C(F)(F)F [Example 2],9 (100% kill)

# Same assay, conditions: 1000 ppm; mortality rating after 3 days
row,Compound,TOBACCO BUDWORM 3rd Instar
1,CN(C)C(=S)SCn1c(Cl)c(C#N)c(Cl)c1-c1ccc(Cl)c(Cl)c1 [Example 36],9 (100% kill)
2,CN(C)C(=S)SCn1c(-c2ccc(Cl)cc2)c(C#N)c(Cl)c1C(F)(F)F [Example 21],9 (100% kill)
3,CN=C(NC)SCn1c(Br)c(Br)c(C#N)c1Br [Example 14],8 (86-99% kill)
4,CN(C)C(=S)SCn1c(-c2ccc(Cl)cc2)c(C#N)c(Br)c1C(F)(F)F [Example 24],9 (100% kill)
5,CSCn1c(Br)c(Br)c(C#N)c1-c1ccc(C(F)(F)F)cc1 [Example 44],9 (100% kill)
6,CN=C(NC)SCn1c(-c2ccc(Cl)cc2)c(C#N)c(Cl)c1C(F)(F)F [Example 2],9 (100% kill)

# Test system: Spodoptera eridania, 3rd instar larvae, southern armyworm
# Test: Southern armyworm 7-day residual test
# Type: in vivo
# Set-up: key: 0: no effect; 10-25% kill; 26-35% kill; 36-45% kill; 46-55% kill; 56-65% kill; 66-75% kill; 76-85% kill; 86-99% kill; 9: 100% kill
# Settings: R designates Residual: 7-day residual foliage; rating at 3 days; concentration not given
# Outline: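 Third-instar southern armyworm larvae were exposed to lima bean foliage that had been treated, then held 7 days under greenhouse lamps simulating bright sun for 14 h per day. Treatment solutions were diluted in water from a 10,000 ppm stock in 35% acetone. Results are scale ratings.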
row,Compound,ARMYWORM Day 3 R
1,CC(C)OC(=S)SCn1c(-c2ccc(Cl)cc2)c(C#N)c(Br)c1C(F)(F)F [Example 30],9 (100% kill)
2,CN(C)C(=S)SCn1c(Cl)c(C#N)c(Cl)c1-c1ccc(Cl)c(Cl)c1 [Example 36],9 (100% kill)
3,CN(C)C(=S)SCn1c(-c2ccc(Cl)cc2)c(C#N)c(Cl)c1C(F)(F)F [Example 21],9 (100% kill)
4,CN=C(NC)SCn1c(Br)c(Br)c(C#N)c1Br [Example 14],0
5,FC(F)(F)c1c(Br)c(-c2ccc(Cl)c(Cl)c2)n(CSC2=NCCCN2)c1C(F)(F)F [Example 17],9 (100% kill)
6,CSCn1c(-c2ccc(Cl)cc2)c(C#N)c(Br)c1C(F)(F)F [Example 25],9 (100% kill)
7,CN(C)C(=S)SCn1c(-c2ccc(Cl)cc2)c(C#N)c(Br)c1C(F)(F)F [Example 24],9 (100% kill)
8,CSCn1c(Br)c(Br)c(C#N)c1-c1ccc(C(F)(F)F)cc1 [Example 44],0
9,CN=C(NC)SCn1c(-c2ccc(Cl)cc2)c(C#N)c(Cl)c1C(F)(F)F [Example 2],9 (100% kill)
10,N#Cc1c(Br)c(C(F)(F)F)n(CSC2=NCCN2)c1-c1ccc(Cl)cc1 [Example 7],9 (100% kill)

# Same assay, conditions: R designates Residual: 7-day residual foliage; rating at 5 days; concentration not given
row,Compound,ARMYWORM Day 5 R
1,CC(C)OC(=S)SCn1c(-c2ccc(Cl)cc2)c(C#N)c(Br)c1C(F)(F)F [Example 30],9 (100% kill)
2,CN(C)C(=S)SCn1c(Cl)c(C#N)c(Cl)c1-c1ccc(Cl)c(Cl)c1 [Example 36],9 (100% kill)
3,CN(C)C(=S)SCn1c(-c2ccc(Cl)cc2)c(C#N)c(Cl)c1C(F)(F)F [Example 21],9 (100% kill)
4,CN=C(NC)SCn1c(Br)c(Br)c(C#N)c1Br [Example 14],5 (56-65% kill)
5,FC(F)(F)c1c(Br)c(-c2ccc(Cl)c(Cl)c2)n(CSC2=NCCCN2)c1C(F)(F)F [Example 17],9 (100% kill)
6,CSCn1c(-c2ccc(Cl)cc2)c(C#N)c(Br)c1C(F)(F)F [Example 25],9 (100% kill)
7,CN(C)C(=S)SCn1c(-c2ccc(Cl)cc2)c(C#N)c(Br)c1C(F)(F)F [Example 24],9 (100% kill)
8,CSCn1c(Br)c(Br)c(C#N)c1-c1ccc(C(F)(F)F)cc1 [Example 44],2 (26-35% kill)
9,CN=C(NC)SCn1c(-c2ccc(Cl)cc2)c(C#N)c(Cl)c1C(F)(F)F [Example 2],9 (100% kill)
10,N#Cc1c(Br)c(C(F)(F)F)n(CSC2=NCCN2)c1-c1ccc(Cl)cc1 [Example 7],9 (100% kill)

# Test system: Heliothis virescens, egg, tobacco budworm
# Test: Tobacco budworm egg test, dipped cotton leaf and eggs
# Type: in vivo
# Set-up: key: 0: no effect; 10-25% kill; 26-35% kill; 36-45% kill; 46-55% kill; 56-65% kill; 66-75% kill; 76-85% kill; 86-99% kill; 9: 100% kill
# Settings: 100 ppm; mortality rating after 3 days
# Outline: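 Scoring is by mortality counts after 3 days, graded on a rating scale. Tobacco budworm eggs (6-30 h old) on cheesecloth and a young cotton leaf were each dipped about 3 s in the test suspension. Suspensions were made from a 10,000 ppm stock in 35% acetone/water with further water dilutions.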
row,Compound,TOBACCO BUDWORM Egg
1,CC(C)OC(=S)SCn1c(-c2ccc(Cl)cc2)c(C#N)c(Br)c1C(F)(F)F [Example 30],0
2,CN(C)C(=S)SCn1c(-c2ccc(Cl)cc2)c(C#N)c(Cl)c1C(F)(F)F [Example 21],0
3,CN=C(NC)SCn1c(-c2ccc(Cl)cc2)c(C#N)c(Cl)c1C(F)(F)F [Example 2],0
4,N#Cc1c(Br)c(C(F)(F)F)n(CSC2=NCCN2)c1-c1ccc(Cl)cc1 [Example 7],0

# Same assay, conditions: 300 ppm; mortality rating after 3 days
row,Compound,TOBACCO BUDWORM Egg
1,N#Cc1c(Br)c(C(F)(F)F)n(CSC2=NCCN2)c1-c1ccc(Cl)cc1 [Example 7],8 (86-99% kill)

# Same assay, conditions: 1000 ppm; mortality rating after 3 days
row,Compound,TOBACCO BUDWORM Egg
1,CC(C)OC(=S)SCn1c(-c2ccc(Cl)cc2)c(C#N)c(Br)c1C(F)(F)F [Example 30],0
2,CN(C)C(=S)SCn1c(Cl)c(C#N)c(Cl)c1-c1ccc(Cl)c(Cl)c1 [Example 36],0
3,CN(C)C(=S)SCn1c(-c2ccc(Cl)cc2)c(C#N)c(Cl)c1C(F)(F)F [Example 21],0
4,CN=C(NC)SCn1c(Br)c(Br)c(C#N)c1Br [Example 14],0
5,FC(F)(F)c1c(Br)c(-c2ccc(Cl)c(Cl)c2)n(CSC2=NCCCN2)c1C(F)(F)F [Example 17],0
6,CSCn1c(-c2ccc(Cl)cc2)c(C#N)c(Br)c1C(F)(F)F [Example 25],0
7,CN(C)C(=S)SCn1c(-c2ccc(Cl)cc2)c(C#N)c(Br)c1C(F)(F)F [Example 24],0
8,CSCn1c(Br)c(Br)c(C#N)c1-c1ccc(C(F)(F)F)cc1 [Example 44],0
9,CN=C(NC)SCn1c(-c2ccc(Cl)cc2)c(C#N)c(Cl)c1C(F)(F)F [Example 2],0
10,N#Cc1c(Br)c(C(F)(F)F)n(CSC2=NCCN2)c1-c1ccc(Cl)cc1 [Example 7],9 (100% kill)
